Laboratory results taken from US20240294551A1 (AMGEN INC., priority 2022, published 2024).
Counter-ions that a name gives are not always drawn. Like-named read-outs stand apart in the source and are kept apart here.

What was measured:
[1] = 16-membered ring
SW620 cells = assay: SW620 CTG Assay (CellTiter-Glo cell viability); assay type: cell-based, human; conditions: SW620, 72 h; third value of the cell; read-out: G12D/C/V Cell Proliferation CTG (72 h) SW620
Procedure, shortened: (§1)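 IC50 values derive from 4-parameter logistic fits of CellTiter-Glo luminescence, expressed relative to DMSO. Compound dilution series were applied to overnight-seeded AsPC-1 or SW620 cells (RPMI 1640, 10% FBS) for 72 h at 37 °C, 5% CO2.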

[2] = system: Phosphorylation of ERK1/2 in AsPC-1 cells; assay: Phospho-ERK1/2 MSD Assay; assay type: cell-based, human; conditions: 2 h, read-out: 2 h p-ERK (AsPC-1 cells), IC50
Procedure, shortened: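 Read-out: MSD electrochemiluminescent detection of phosphorylated ERK1/2 in whole-cell lysates, fitted to a 4-parameter logistic curve for IC50. Prior to lysis, AsPC-1 cells (25,000 per well) received a 2 h compound dose-response at 37 °C.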

[3] = molecular target: His-tagged KRAS G12D protein (Homo sapiens (Human), UniProt P01116, G12D); assay: KRAS G12D TR-FRET Assay; assay type: binding; conditions: read-out: KRAS G12D Binding IC50
Procedure, shortened: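 Each incubation ran at room temperature: enzyme with compound for 30 minutes, peptide for one hour, and detection reagents (0.4 nM europium anti-6×His, 5 nM streptavidin-d2) for one hour more. Protein and peptide stocks were each diluted to 20 nM before addition.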

[4] = molecular target: GDP-bound KRAS protein (aa 1-169), containing both G12D and C118A amino acid substitutions (Homo sapiens (Human), UniProt P01116, C118A/G12D); assay: KRAS G12D Coupled Nucleotide Exchange Assay; assay type: biochemical; conditions: read-out: KRAS G12D Coupled Exchange IC50
[5] = from Oc1nc(OC[C@@]23CCCN2C[C@H](F)C3)nc2c(F)c(-c3c(CCCCOC[C@H]4CNCCO4)c(Cl)cc4[nH]ncc34)ncc12; snar bond; 16-membered ring; BroP/DIEA; MeCN/DMSO; 4.7 mM; 25.0 °C
AsPC-1 cells = assay: AsPC-1 CTG Assay (CellTiter-Glo cell viability); assay type: cell-based, human; conditions: AsPC-1, 72 h; first value of the cell; read-out: G12D/C/V Cell Proliferation CTG (72 h) AsPC-1
Procedure, shortened: as §1

Chain of His-tagged KRAS G12D protein (P01116 other isoform, or with tags, fused parts or gaps G12D): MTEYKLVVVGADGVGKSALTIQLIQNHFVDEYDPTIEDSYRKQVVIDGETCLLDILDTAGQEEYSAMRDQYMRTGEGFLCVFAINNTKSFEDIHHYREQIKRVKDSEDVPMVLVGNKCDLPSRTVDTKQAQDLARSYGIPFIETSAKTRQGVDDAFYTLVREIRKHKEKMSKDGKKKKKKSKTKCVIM
Chain of GDP-bound KRAS protein (aa 1-169), containing both G12D and C118A amino acid substitutions (P01116 other isoform, or with tags, fused parts or gaps G12D/C118A): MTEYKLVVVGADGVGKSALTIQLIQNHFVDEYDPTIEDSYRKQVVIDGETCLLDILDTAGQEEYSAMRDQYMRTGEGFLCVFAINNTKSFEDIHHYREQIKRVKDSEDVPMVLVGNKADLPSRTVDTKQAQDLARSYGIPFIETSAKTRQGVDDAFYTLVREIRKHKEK

Cc1cc2c(cnn2C2CCCCO2)c2c1CC=CCOC[C@@H]1CCCN(C1)c1nc(OC[C@@]34CCCN3C[C@H](F)C4)nc3c(F)c-2ncc13 (mixture of isomers)
ring closure, isolated yield ([1]; from C=CCOC[C@@H]1CCCN(c2nc(OC[C@@]34CCCN3C[C@H](F)C4)nc3c(F)c(-c4c(CC=C)c(C)cc5c4cnn5C4CCCCO4)ncc23)C1, rcm bond, Hoveyda-Grubbs II/TsOH, 1,2-dichloroethane, 2.1 mM, 80.0 °C): 21%

Fc1c2ncc3c(nc(OC[C@@]45CCCN4C[C@H](F)C5)nc13)N1CCO[C@@H](COCCCCc3c(Cl)cc4[nH]ncc4c3-2)C1 [Example 135, (17R)-9-Chloro-30-fluoro-24-(((2R,7aS)-2-fluorotetrahydro-1H-pyrrolo[1,2-a]pyrrol-7a(5H)-yl)methoxy)-15,18-dioxa-5,6,21,23,25,29-hexaazahexacyclo[24.3.1.1˜17,21.0˜2,10˜.0˜3,7˜.0˜22,27˜]hentriaconta-1(30),2,4,7,9,22,24,26,28-nonaene trifluoroacetate]
IC50 (SW620 cells): 55.1 nM
IC50 [2]: 17 nM
IC50 [3]: 3 nM
IC50 [4]: 2 nM
ring closure, yield after HPLC [5]: 39%
IC50 (AsPC-1 cells): 250 nM

Cc1cc2c(cnn2C2CCCCO2)c2c1CCCn1ncc(n1)C1CCCN(C1)c1nc(OC[C@@]34CCCN3C[C@H](F)C4)nc3c(F)c-2ncc13 (some centres unmarked)
ring closure, isolated yield ([1]; from Cc1cc2c(cnn2C2CCCCO2)c(-c2ncc3c(N4CCCC(c5cn[nH]n5)C4)nc(OC[C@@]45CCCN4C[C@H](F)C5)nc3c2F)c1CCCCl, other bond, K2CO3/TBAI, MeCN, 6.9 mM, 85.0 °C): 31%

O[C@@H]1C[C@@H]2COCCCCc3c(Cl)cc4[nH]ncc4c3-c3ncc4c(nc(OC[C@@]56CCCN5C[C@H](F)C6)nc4c3F)N(C1)C2 (mixture of isomers)
ring closure, isolated yield ([1]; from Oc1nc(OC[C@@]23CCCN2C[C@H](F)C3)nc2c(F)c(-c3c(CCCCOC[C@@H]4CNC[C@H](O)C4)c(Cl)cc4[nH]ncc34)ncc12, snar bond, BroP/DIEA, MeCN/DMSO, 4.7 mM, 25.0 °C): 25%

Cc1cc2c(cnn2C2CCCCO2)c2c1CCC=CCCC1(O)CCCN(C1)c1nc(OC[C@@]34CCCN3C[C@H](F)C4)nc3c(F)c-2ncc13 (some centres unmarked)
ring closure, isolated yield ([1]; from C=CCCc1c(C)cc2c(cnn2C2CCCCO2)c1-c1ncc2c(N3CCCC(O)(CCC=C)C3)nc(OC[C@@]34CCCN3C[C@H](F)C4)nc2c1F, rcm bond, Hoveyda-Grubbs II (20 mol%)/TsOH, DCE, 1.6 mM, 80.0 °C): 71%

CC(C)(C)OC(=O)n1ncc2c3c(ccc21)OCCCC(=O)O[C@@H]1CCCN(C1)c1nc(OC[C@@]24CCCN2C[C@H](F)C4)nc2c(F)c-3ncc12
ring closure, isolated yield ([1]; from CC(C)(C)OC(=O)n1ncc2c(-c3ncc4c(N5CCC[C@@H](OC(=O)CCCBr)C5)nc(OC[C@@]56CCCN5C[C@H](F)C6)nc4c3F)c(O)ccc21, ether bond, K2CO3, DMF, 17.5 mM): 24%
